Laboratory results reported in patent US4440779A, “Tricyclic derivatives of substituted pyrrole acids as analgesic and anti-inflammatory agents” (Merck & Co., Inc., priority 1982, dated 1984).

Assays:
[1] = system: edema induced by carragenin in rat foot; experiment: rat foot edema assay (carragenin-induced edema, C.F.E.); type: in vivo, rat (Sprague Dawley); settings: 1 h before carragenin, read at 3 h; for inhibition in vivo at 3 mg/kg: 3 mg/kg oral; for inhibition in vivo at 10 mg/kg: 10 mg/kg oral; for inhibition in vivo at 20 mg/kg: 20 mg/kg oral; for inhibition in vivo at 30 mg/kg: 30 mg/kg oral
Description: The rat foot edema assay for determining anti-inflammatory activity is based on the ability of the compounds of Formula I to inhibit the edema induced by the injection of an inflammatory (phlogistic) agent into the tissues of the foot of a rat. Several groups of six male rats (Sprague Dawley strain, 150±30 g each) are given orally the compounds to be tested one hour before 0.1 ml of a 1% suspension of carragenin in 0.5% methocel is injected into the planar surface of each rat's right hind paws. Immediately and again three hours later, the foot volume is measured and recorded. The difference between the initial and final volumes is a measurement of the edema produced. Usually the compounds to be tested are suspended or dissolved in 0.5% methocel, and their activities measured against that produced by a known anti-inflammatory agent e.g., zomepirac (U.S. Pat. No. 3,952,012) according to standard procedure. The activity of a tested compound is also compared with that produced by a "control" rat which receives only the methocel solution. A test of 3 mg/kg, 10 mg/kg plus one dose of 30 mg/kg are usually given.

gastric mucosa = experiment: Gastric Hemorrhage Lesion Formation Assay (GHLF); type: in vivo, rat (Sprague-Dawley); settings: fasted, 4 h
Description: In other words, they induce less gastric irritation than Zompirac. The GHLF test is conducted according to the following procedure:
Rats (Sprague-Dawley, Males, 120-180 gm) are fasted overnight and dosed orally with drug suspended in 0.5% methylcellulose. The drug concentration is adjusted so that each animal received 1.0 ml/100 gm body weight. Four hours later the animals are killed by asphixiation in carbon dioxide, the stomachs removed, cut open and everted. The mucosal lining is washed and examined under 3X magnification. The lesions are identified as perforations of the gastric mucosa, many of which perforate right through the wall of the stomach.
The results are expressed in two ways, the average number of lesions per stomach, and the number of animals in the group showing at least one lesion.

SMILES	inhibition in vivo at 3 mg/kg [1]	inhibition in vivo at 10 mg/kg [1]	inhibition in vivo at 20 mg/kg [1]	Animals with lesions (gastric mucosa; 90 mg/kg oral)	Ave. lesions per animal (gastric mucosa; 90 mg/kg oral)	inhibition in vivo at 30 mg/kg [1]	other results
Cc1ccc2c(c1)OCc1cc(CC(=O)O)n(C)c1C2=O [7-CH3 / OCH2 / H, 1,7-dimethyl-4,10-dihydro-10-oxo-1H[1]benzoxepino[4,3-b]-pyrrole-2-acetic acid]	32.1%	39.9%	42.6%	2/6	0.33	–	Animals with lesions (gastric mucosa; 30 mg/kg oral): 0/6; Ave. lesions per animal (gastric mucosa; 30 mg/kg oral): 0; Animals with lesions (gastric mucosa; 60 mg/kg oral): 1/6; Ave. lesions per animal (gastric mucosa; 60 mg/kg oral): 0.16; Animals with lesions (gastric mucosa; 120 mg/kg oral): 4/6; Ave. lesions per animal (gastric mucosa; 120 mg/kg oral): 3.3
CC(C(=O)O)c1cc2c(n1C)C(=O)c1ccc(Cl)cc1CC2 (stereo not drawn) [7-Cl / CH2CH2 / CH3, 1,4,5,10-Tetrahydro-7-chloro-1,α-dimethyl-10-oxobenzocyclohepta[1,2-b]pyrrole-2-acetic acid]	–	–	36.8%	–	–	59%	–
Cn1c(CC(=O)O)cc2c1C(=O)c1ccc(Cl)cc1CC2 [7-Cl / CH2CH2 / H]	29.9%	41.5%	–	–	–	57.5%	Animals with lesions (gastric mucosa; 100 mg/kg oral): 1/5; Ave. lesions per animal (gastric mucosa; 100 mg/kg oral): 0.2; Animals with lesions (gastric mucosa; 300 mg/kg oral): 0/5; Ave. lesions per animal (gastric mucosa; 300 mg/kg oral): 0; Animals with lesions (gastric mucosa; 600 mg/kg oral): 4/5; Ave. lesions per animal (gastric mucosa; 600 mg/kg oral): 1.8
Cn1c(CC(=O)O)cc2c1C(=O)c1ccc(Cl)cc1CO2 [7-Cl / CH2O / H]	–	–	50%	–	–	–	–
CC(C(=O)O)c1cc2c(n1C)C(=O)c1ccc(Cl)cc1OC2 (stereo not shown) [7-Cl / OCH2 / CH3]	–	–	–	–	–	60%	–
Cn1c(CC(=O)O)cc2c1C(=O)c1ccc(Cl)cc1OC2 [7-Cl / OCH2 / H, 7-chloro-4,10-dihydro-1-methyl-10-oxo-1H-[1]benzoxepino[4,3-b]pyrrole-2-acetic acid]	46%	64%	–	5/6	5.0	54%	Animals with lesions (gastric mucosa; 60 mg/kg oral): 0/6; Ave. lesions per animal (gastric mucosa; 60 mg/kg oral): 0
Cn1c(CC(=O)O)cc2c1C(=O)c1ccc(Cl)cc1SC2 [7-Cl / SCH2 / H, 7-Chloro-4,10-dihydro-1-methyl-10-oxo-1H-[1]benzothiepino[4,3-b]pyrrole-2-acetic acid]	–	–	–	–	–	51%	–
Cn1c(CC(=O)O)cc2c1C(=O)c1ccc(F)cc1OC2 [7-F / OCH2 / H]	–	31%	–	–	–	40%	–
COc1ccc2c(c1)OCc1cc(CC(=O)O)n(C)c1C2=O [7-OCH3 / OCH2 / H, 7-methoxy-4,10-dihydro-1-methyl-10-oxo-1H[1]-benzoxepino[4,3-b]pyrrole-2-acetic acid]	44%	–	–	2/6	1.0	61%	Animals with lesions (gastric mucosa; 120 mg/kg oral): 4/6; Ave. lesions per animal (gastric mucosa; 120 mg/kg oral): 4.0
